# Data taken from US20160115540A1, “PRODRUGS AND DRUGS” (Biogen MA Inc., priority 2013, published 2016).
# Where a name gives a salt, the structure may show the parent alone.
# Tested on: brain
# Experiment: Transcriptional profiling, multi-dosing regimen, naïve mice: brain
# Format: in vivo
# Settings: for FC: BRAIN_HEMI, 100MMF-vs-Veh
# Experimental: In vivo, DMF is rapidly metabolized to monomethyl fumarate (MMF). […] Animals were exposed to CO2 and whole blood collected via cardiac puncture. Two 100 μl aliquots of whole blood were collected in 1.5 mL microcentrifuge tubes and snap frozen in liquid nitrogen. Peripheral (liver, spleen, kidney and jejunum) and CNS brain (cerebellum, hippocampus, striatum and cortex) tissues were harvested and snap frozen in liquid nitrogen, with special care taken to collect tissues of similar size and from the same location. All samples were stored at -80° C. until RNA extraction was conducted. For RNA preparation, frozen tissues were placed in 2 mL RNAse-free 96-well blocks with 1.5 mL QIAzol Lysis Reagent (QIAgen) and a 3.2 mm stainless steel bead (BioSpec Products, Bartlesville, Okla.). Tissues were disrupted for four cycles of 45 seconds in a Mini-Beadbeater (Biospec Products). RNA was extracted in chloroform and the aqueous phase was mixed with an equal volume of 70% ethanol. Extracted RNA was applied to RNeasy 96 plates and purified by the spin method according to the manufacturer's protocol (RNeasy 96 Universal Tissue Protocol, QIAgen, Hilden Germany). […] Two micrograms of biotin labeled […] probe were hybridized to Affymetrix GeneChip Affymetrix HT_MG-430_PM plate arrays with modified conditions as described in […] et al. Washing and staining of the hybridized arrays were completed as described in the GeneChip Expression analysis technical manual for HT plate arrays using the Genechip® Array Station (Affymetrix, Santa Clara, Calif.) with modifications as described in […] et al. The processed GeneChip® plate arrays were scanned using GeneTitan scanner (Affymetrix, Santa Clara, Calif.). Affymetrix scans were subject to quality control (QC) measures. These tests included a visual inspection of the distribution of raw signal intensities and an assessment of RNA degradation, relative log expression (RLE), and normalized unsealed standard error (NUSE). All sample scans that passed these QC metrics were included in the analysis. All CEL files were subjected to GC-content-based Robust Multi-array Average (GCRMA) normalization (version 2.20.0) (Irizarry R A, et al. Nucleic Acids Res 2003; 31:e15; Li C, et al. […] Stat Appl Genet Mol Biol 2004; 3:Article3). […] Springer Science+Business Media 2005). Changes in gene expression were studied by applying a linear modeling approach to fit gene expression levels according to the defined groups of samples (e.g. DMF-, MMF-, and Vehicle-treated animals) and Bayesian posterior error analysis as implemented by Smyth (Smyth G K. Stat Appl Genet Mol Biol 2004; 3:Article3). The comparisons considered included: DMF-vs-MMF, DMF-vs-Vehicle, and MMF-vs-Vehicle. […] Very few DEGs are observed in blood and tissues derived from the central nervous system (brain, cerebellum, cortex, striatum, and spinal cord).
compound,measurement,setting,value
"COC(=O)/C=C/C(=O)O [MMF, monomethyl fumarate]",FC,0610037L13Rik 1429879_PM_at,−1.51
same,FC,1436646_PM_at (no gene symbol),−1.53
same,FC,1437987_PM_at (no gene symbol),−1.66
same,FC,1438259_PM_at (no gene symbol),−1.59
same,FC,2310079F09Rik 1433201_PM_at,2.17
same,FC,2610021A01Rik 1438786_PM_a_at,−1.90
same,FC,2610044O15Rik 1428693_PM_at,−1.52
same,FC,2900062L11Rik 1428333_PM_at,−1.50
same,FC,4930432O21Rik 1434625_PM_at,−1.66
same,FC,4930453N24Rik 1438553_PM_x_at,−1.61
same,FC,4933421E11Rik 1428162_PM_at,−1.50
same,FC,A730017C20Rik 1437528_PM_x_at,−2.06
same,FC,AI597468 1433897_PM_at,−1.51
same,FC,AI747699 1433914_PM_at,−2.28
same,FC,Abi1 1438506_PM_s_at,−2.04
same,FC,Acad9 1429581_PM_at,−1.55
same,FC,Akr1a4 1430123_PM_a_at,−1.75
same,FC,Aldh9a1 1436689_PM_a_at,−1.63
same,FC,Aldh18a1 1437325_PM_x_at,−1.51
same,FC,Ampd2 1438941_PM_x_at,−1.76
same,FC,Apex1 1437715_PM_x_at,−1.52
same,FC,Appl1 1436116_PM_x_at,−1.62
same,FC,Arhgap21 1428369_PM_s_at,−1.66
same,FC,Atp13a5 1436411_PM_at,−1.51
same,FC,Atxn10 1438653_PM_x_at,−1.69
same,"FC, Depp (1433836_PM_a_at)","BrainHemi, multi-dosing, MMF-vs-Vehicle",−1.01
same,FC,Btg1 /// LOC100047353 1437455_PM_a_at,−1.55
same,FC,Cadm2 1429211_PM_at,−1.76
same,FC,Cadm2 1435146_PM_s_at,−2.25
same,FC,Cherp 1436885_PM_a_at,−1.99
same,FC,Chuk 1428210_PM_s_at,−1.68
same,FC,Clcc1 1436390_PM_a_at,−1.64
same,FC,Clvs1 1433906_PM_at,−1.54
same,FC,Cpt1a 1434866_PM_x_at,−1.81
same,FC,Cttnbp2 1435435_PM_at,−1.75
same,FC,Dab2 1429693_PM_at,1.53
same,FC,Ddx5 1438371_PM_x_at,−1.52
same,FC,Derl1 1437723_PM_s_at,−1.51
same,FC,Dnpep 1438557_PM_x_at,−1.50
same,FC,Enoph1 1437327_PM_x_at,−1.62
same,FC,Fam13c 1436761_PM_s_at,−1.83
same,FC,Fbxo11 1434108_PM_at,−1.50
same,FC,Gm5256 /// Gm5529 /// Slc25a5 1438360_PM_x_at,−1.53
same,FC,Gm5256 /// Gm5529 /// Slc25a5 1438922_PM_x_at,−1.51
same,FC,Gm6159 /// Hnrnpr 1437526_PM_x_at,−1.61
same,FC,Gm11793 /// Hnrnpf 1437099_PM_x_at,−1.53
same,FC,Gm13342 /// Gm15776 /// Gm3150 /// Gng5 /// LOC100044719 1436946_PM_s_at,−1.70
same,FC,Gm14288 1429712_PM_at,−1.68
same,FC,Gns 1433488_PM_x_at,−2.01
same,FC,Gria4 1436772_PM_at,−1.57
same,FC,Hadhb 1437172_PM_x_at,−1.86
same,FC,Hbxip 1436152_PM_a_at,−1.65
same,FC,Higd1c /// Mettl7a1 /// Mettl7a2 1434150_PM_a_at,−1.60
same,FC,Hnrpdl 1428224_PM_at,−1.60
same,FC,Hs3st2 1438624_PM_x_at,−1.86
same,FC,Impa1 1436848_PM_x_at,−1.55
same,FC,Ing1 1433267_PM_at,1.53
same,FC,Ipo4 1436420_PM_a_at,−1.64
same,FC,Itgb8 1436223_PM_at,−1.59
same,FC,LOC100047324 /// Sesn1 1438931_PM_s_at,−1.97
same,FC,Laptm4b 1436915_PM_x_at,−1.68
same,FC,Lasp1 1438634_PM_x_at,−1.50
same,FC,Mettl9 1438171_PM_x_at,−1.63
same,FC,Mthfd2l 1429599_PM_a_at,−1.71
same,FC,Ncoa2 1435233_PM_at,−1.55
same,FC,Ndufb6 1434056_PM_a_at,−1.56
same,FC,Nelf 1436959_PM_x_at,−1.65
same,FC,Nxph1 1436718_PM_at,−1.56
same,FC,Paics 1436298_PM_x_at,−1.57
same,FC,Paqr3 1429216_PM_at,−1.56
same,FC,Phyhipl 1437062_PM_s_at,−1.69
same,FC,Pisd-ps1 /// Pisd-ps3 1436944_PM_x_at,−2.43
same,FC,Pofut2 1437845_PM_x_at,−1.98
same,FC,Poldip3 1437837_PM_x_at,−1.74
same,FC,Polr3a 1437525_PM_a_at,−1.76
same,FC,Ppip5k2 1433856_PM_at,−1.57
same,FC,Prkg2 1435162_PM_at,−1.69
same,FC,Prss23 1437671_PM_x_at,−1.74
same,FC,Ptpdc1 1433823_PM_at,−1.59
same,FC,Ptpn2 1438562_PM_a_at,−1.74
same,FC,Rgs19 1434940_PM_x_at,−1.51
same,FC,Rif1 1429490_PM_at,−1.82
same,FC,Rnf14 1437035_PM_x_at,−1.68
same,FC,Rnf157 1434427_PM_a_at,−1.67
same,FC,Sfrs13b 1437168_PM_at,−1.66
same,FC,Slc9a3r1 1438115_PM_a_at,−1.85
same,FC,Slc12a6 1436989_PM_s_at,−1.80
same,FC,Snx16 1438803_PM_s_at,−1.55
same,FC,Sp4 1437508_PM_at,−1.54
same,Number of differentially expressed genes identified: Brain Hemi,"Table 13: Naïve, Single Dose (so in the source), 90 mpk MMF-vs-Vehicle, 12 h after last dosing",280
same,FC,Tchh 1434425_PM_at,−1.64
same,FC,Tmem41b 1428586_PM_at,−1.89
same,FC,Tox3 1436600_PM_at,−1.56
same,FC,Trim9 1434249_PM_s_at,−1.58
same,FC,Ttc14 1437878_PM_s_at,−1.64
same,FC,Tubgcp4 1433659_PM_at,−1.54
same,FC,Uba2 1437278_PM_a_at,−1.50
same,FC,Uba3 1435164_PM_s_at,−1.65
same,FC,Zdhhc20 1434236_PM_at,−1.64
same,FC,Zfp110 1437236_PM_a_at,−1.77
same,FC,Zfp260 1436495_PM_s_at,−1.65
same,FC,Zfp788 1429371_PM_at,−1.65
